In patent US12258360B2, “Compositions and methods for treatment of anticancer-drug resistant cancers” (THE GEORGE WASHINGTON UNIVERSITY, priority 2020, dated 2025):

target: T1, And-1 (Homo sapiens, UniProt O75717); experiment: immunoblot analysis of And-1 expression in IGROV1 cells; type: cell-based; parameters: endogenous in cells; host or cells: IGROV1 CR; conditions: immunoblot, read-out: IC50 for inhibition of And-1 expression
T1 sequence (O75717 1-1129): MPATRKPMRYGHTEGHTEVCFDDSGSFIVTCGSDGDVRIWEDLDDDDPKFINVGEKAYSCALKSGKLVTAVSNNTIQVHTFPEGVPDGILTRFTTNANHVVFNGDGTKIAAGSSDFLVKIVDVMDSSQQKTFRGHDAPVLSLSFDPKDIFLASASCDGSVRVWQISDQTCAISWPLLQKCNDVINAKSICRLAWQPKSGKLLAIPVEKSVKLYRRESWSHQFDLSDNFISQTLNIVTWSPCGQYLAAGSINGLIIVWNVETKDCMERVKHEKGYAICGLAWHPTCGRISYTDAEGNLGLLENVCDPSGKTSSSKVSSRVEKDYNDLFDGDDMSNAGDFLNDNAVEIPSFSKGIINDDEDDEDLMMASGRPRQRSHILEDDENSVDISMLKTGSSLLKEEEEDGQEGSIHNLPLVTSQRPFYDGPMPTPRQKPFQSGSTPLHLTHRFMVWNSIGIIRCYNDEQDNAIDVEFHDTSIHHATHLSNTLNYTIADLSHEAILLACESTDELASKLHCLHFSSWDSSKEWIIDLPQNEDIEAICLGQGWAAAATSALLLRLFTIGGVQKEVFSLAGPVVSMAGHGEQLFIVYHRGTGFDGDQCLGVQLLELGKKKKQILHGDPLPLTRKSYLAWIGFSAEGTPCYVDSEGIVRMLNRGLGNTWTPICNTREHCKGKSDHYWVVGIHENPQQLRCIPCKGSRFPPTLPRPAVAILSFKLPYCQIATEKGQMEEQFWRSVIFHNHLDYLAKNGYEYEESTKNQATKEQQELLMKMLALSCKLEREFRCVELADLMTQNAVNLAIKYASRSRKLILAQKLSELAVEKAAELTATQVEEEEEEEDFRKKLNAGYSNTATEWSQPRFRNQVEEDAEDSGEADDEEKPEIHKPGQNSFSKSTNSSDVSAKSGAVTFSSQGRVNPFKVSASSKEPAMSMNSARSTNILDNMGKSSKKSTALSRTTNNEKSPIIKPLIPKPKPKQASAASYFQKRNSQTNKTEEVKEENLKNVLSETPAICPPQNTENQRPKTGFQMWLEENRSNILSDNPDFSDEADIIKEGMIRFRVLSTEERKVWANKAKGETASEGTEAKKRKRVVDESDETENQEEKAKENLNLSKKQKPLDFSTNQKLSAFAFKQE
Protocol: The high IC50 of resveratrol compromises its potential clinical application; therefore, resveratrol was used as a lead compound to screen 12 analogs of resveratrol for potent compounds that can inhibit And-1 (FIG. 14). […] To perform immunoblot analyses, cells were first treated with increasing concentrations of the 12 analogs. After treatment, the cells were harvested and then lysed with RIPA buffer protease inhibitor and phosphatase inhibitor cocktail. Protein concentration was determined by the BCA protein assay. Equal amounts of whole cell lysates were separated on sodium dodecyl sulfate polyacrylamide gel electrophoresis (SDS-PAGE) and transferred onto nitrocellulose membranes. Membranes were then incubated in blocking solution (5% non-fat milk in 20 mM TRIS-HCl, 150 mM NaCl, 0.1% Tween-20) (TBST), followed by incubation with the indicated antibodies at 4° C. overnight. The membranes were then washed in TBST and incubated with HRP-conjugated secondary antibodies for 1 hour at room temperature (21° C.±2° C.). Antibody detection was performed with an enhanced chemiluminescence reaction.

DC50 [µM] | SMILES
16.7 | Oc1ccc(C=Cc2cc(O)cc(O)c2)cc1 [Resveratrol]

target: T1, And-1; experiment: inhibition of And-1 in OV90 CR cells; type: cell-based; parameters: endogenous in cells; conditions: inhibition of And-1, OV90 CR cells

SMILES | IC50 [µM]
OB1OCc2cc(/C=C/c3cc(C(F)(F)F)cc(C(F)(F)F)c3)ccc21 [IV, (E)-5-(3,5-bis(trifluoromethyl)styryl)benzo[c][1,2]oxaborol-1(3H)-ol] | 57.9
OB1OCc2cc(/C=C/c3ccccc3)ccc21 [XIII, (E)-5-styrylbenzo[c][1,2]oxaborol-1(3H)-ol] | 45.6

The next lines start with the values.

IC50 [µM] | SMILES
20.6 | OB1OCc2cc(/C=C/c3cccc(Cl)c3)ccc21 [X, (E)-5-(3-chlorostyryl)benzo[c][1,2]oxaborol-1(3H)-ol]
34.3 | Cc1cccc(/C=C/c2ccc3c(c2)COB3O)c1 [XI, (E)-5-(3-methylstyryl)benzo[c][1,2]oxaborol-1(3H)-ol]
37.4 | COc1cccc(/C=C/c2ccc3c(c2)COB3O)c1 [XII, (E)-5-(3-methoxystyryl)benzo[c][1,2]oxaborol-1(3H)-ol]

target: T2, And-1 protein fused to a luciferase reporter gene (Homo sapiens, UniProt O75717); experiment: quantitative HTS (qHTS) of LOPAC library in HEK293T-And-1-Luc cells (luciferase read-out of And-1 level); type: cell-based; conditions: HTS assay, average of 1 and 2; read-out: IC50 (μM) average
T2 sequence (O75717 1-1129): T1 sequence (O75717 1-1129)
Excerpt: To identify And-1 specific pharmacologic inhibitors, a high-throughput screening (HTS) assay was established to identify small molecules that can inhibit And-1 by inducing its degradation. For this assay, two stable cell lines, a HEK293T-And-1-Luc cell expressing And-1 protein fused to a luciferase reporter gene, and a HEK293T-Luc cell expressing luciferase only were generated (FIG. 13A). HEK293T-And-1-Luc cells allowed for assessment of And-1 protein levels by measuring luciferase activity in a high throughput manner.

DC50 [µM] | SMILES | IC50 [µM]
 | CC[n+]1c(/C=C/C=C2/N(C)c3ccccc3C2(C)C)sc2ccccc21 [AC-93253 iodide] | 0.76
 | CNc1ccc2oc(C[C@H]3O[C@@]4(CC[C@H]3C)O[C@H]([C@H](C)C(=O)c3ccc[nH]3)[C@H](C)C[C@H]4C)nc2c1C(=O)O [Calcimycin] | 8.32
 | COCCOC(=O)C1=C(C)NC(C)=C(C(=O)OC/C=C/c2ccccc2)C1c1cccc([N+](=O)[O-])c1 (stereo not drawn) [Cilnidipine] | 21.1
 | c1ccc2c(c1)[I+]c1ccccc1-2 [Diphenyleneiodonium chloride] | 0.43
 | O=C1C(SCCO)=C(SCCO)C(=O)c2ccccc21 [NSC 95397] | 9.42
18.9 | Oc1ccc(C=Cc2cc(O)cc(O)c2)cc1 [Resveratrol] | 

same assay, conditions: HTS assay, determination 1; read-out: IC50 (μM) 1

DC50 [µM] | SMILES | IC50 [µM]
 | CC[n+]1c(/C=C/C=C2/N(C)c3ccccc3C2(C)C)sc2ccccc21 [AC-93253 iodide] | 1.09
 | CNc1ccc2oc(C[C@H]3O[C@@]4(CC[C@H]3C)O[C@H]([C@H](C)C(=O)c3ccc[nH]3)[C@H](C)C[C@H]4C)nc2c1C(=O)O [Calcimycin] | 6.1
 | COCCOC(=O)C1=C(C)NC(C)=C(C(=O)OC/C=C/c2ccccc2)C1c1cccc([N+](=O)[O-])c1 (stereo not drawn) [Cilnidipine] | 22.9
 | c1ccc2c(c1)[I+]c1ccccc1-2 [Diphenyleneiodonium chloride] | 0.84
 | O=C1C(SCCO)=C(SCCO)C(=O)c2ccccc21 [NSC 95397] | 11.2
14.9 | Oc1ccc(C=Cc2cc(O)cc(O)c2)cc1 [Resveratrol] | 

same assay, conditions: HTS assay, determination 2; read-out: IC50 (μM) 2

DC50 [µM] | SMILES | IC50 [µM]
 | CC[n+]1c(/C=C/C=C2/N(C)c3ccccc3C2(C)C)sc2ccccc21 [AC-93253 iodide] | 0.44
 | CNc1ccc2oc(C[C@H]3O[C@@]4(CC[C@H]3C)O[C@H]([C@H](C)C(=O)c3ccc[nH]3)[C@H](C)C[C@H]4C)nc2c1C(=O)O [Calcimycin] | 10.5
 | COCCOC(=O)C1=C(C)NC(C)=C(C(=O)OC/C=C/c2ccccc2)C1c1cccc([N+](=O)[O-])c1 (stereo not drawn) [Cilnidipine] | 19.3
 | c1ccc2c(c1)[I+]c1ccccc1-2 [Diphenyleneiodonium chloride] | 0.03
 | O=C1C(SCCO)=C(SCCO)C(=O)c2ccccc21 [NSC 95397] | 7.68
22.9 | Oc1ccc(C=Cc2cc(O)cc(O)c2)cc1 [Resveratrol] | 

tested on: AN3CA cells; experiment: cell proliferation assay (MTS) in AN3CA cells; type: cell-based, human; conditions: 10 μM, 48 h
Protocol: • 1. The experimental steps are as follows: • 1.1 AN3CA cell recovery and culture (MEM medium, 10% serum, 1% double antibody); • 1.2 Passages (passage at a ratio of 1:2); • 1.3 Place 96-well plate when the cell status is good, 1×10^4 Well, culture overnight; • culture medium with 10% defatted serum • 1.4 Adding medicine: diluting the final concentration of the drug with a culture medium to 10 μM, and treating for 48 h at 100 μL/well; • culture medium with 10% defatted serum • 1.5 Addition of 2 μL MTS/well, care taken to prevent bubble formation, 490 nm data after 1-4 h

SMILES | inhibition of AN3CA cell proliferation (in words)
OB1OCc2cc(/C=C/c3cc(C(F)(F)F)cc(C(F)(F)F)c3)ccc21 [IV, (E)-5-(3,5-bis(trifluoromethyl)styryl)benzo[c][1,2]oxaborol-1(3H)-ol] | different degrees of inhibition

tested on: SREBP target gene SCD-1; experiment: RT-PCR detection of SCD-1 gene expression in AN3CA cells; type: cell-based, human; conditions: AN3CA cells, 10 μM
Protocol: • 1. Experimental reagent • 2. The experimental steps are as follows: • 2.1 AN3CA cell recovery and culture (10% serum 1% double antibody in MEM medium); • 2.2 passages (passage at a ratio of 1:2); • 2.3 Place 6 well plates when the cell status is good, 5×10^5Well, culture overnight; • 2.4 adding medicine: diluting the final concentration of the drug with a culture medium to 10 μM, 2 mL/well; • 2.5 adding medicine for 48 h, and then extracting RNA; • 2.5.1 removing the culture medium, adding 0.5 mL/hole Trizol to lyse the cells, repeatedly blowing and beating the cells by a pipette after 5 min, completely lysing the cells, transferring the cells into a 1.5 mL EP tube without RNase, and standing the tube for 5 min; • 2.5.2 adding 200 µl chloroform, shaking rapidly, mixing, standing for 10 min 12000 rpm/15 min; • 2.5.3 carefully taking out the supernatant, transferring the supernatant into an EP tube, adding isopropanol with the same volume, reversing, uniformly mixing, standing for 10 min, and centrifuging at 12000 rpm/10 min; • 2.5.4 removing the supernatant, adding 1 mL of 75% ethanol for washing, centrifuging at 8000 rpm/5 min once, carefully removing the supernatant, standing at room temperature for 10 min to volatilize the ethanol, and dissolving the precipitate with 40 μL of DEPC treated water when the precipitate becomes transparent; • 2.5.5 RNA concentration was measured and DEPC-treated water was diluted to 100 ng/μL • 2.6 reverse transcription: Kit Takara (PrimeScript RT reagent Kit (Perfect Real Time)

SMILES | activity of reducing SCD-1 gene expression (in words)
OB1OCc2cc(/C=C/c3cc(C(F)(F)F)cc(C(F)(F)F)c3)ccc21 [IV, (E)-5-(3,5-bis(trifluoromethyl)styryl)benzo[c][1,2]oxaborol-1(3H)-ol] | better than those of BF-175

same assay, conditions: AN3CA cells, 10 μM, 48 h; DMSO = 1

SMILES | Relative mRNA expression of SCD-1
OB1OCc2cc(/C=C/c3cc(C(F)(F)F)cc(C(F)(F)F)c3)ccc21 [IV, (E)-5-(3,5-bis(trifluoromethyl)styryl)benzo[c][1,2]oxaborol-1(3H)-ol] | 0.42
OB1OCc2cc(/C=C/c3cccc(Cl)c3)ccc21 [X, (E)-5-(3-chlorostyryl)benzo[c][1,2]oxaborol-1(3H)-ol] | 0.56
COc1cccc(/C=C/c2ccc3c(c2)COB3O)c1 [XII, (E)-5-(3-methoxystyryl)benzo[c][1,2]oxaborol-1(3H)-ol] | 0.62
OB1OCc2cc(/C=C/c3ccccc3)ccc21 [XIII, (E)-5-styrylbenzo[c][1,2]oxaborol-1(3H)-ol] | 0.71

same assay, conditions: human endometrial cancer AN3CA cells, 10 μM

SMILES | inhibitory effect on Srebp
OB1OCc2cc(/C=C/c3cccc(Cl)c3)ccc21 [X, (E)-5-(3-chlorostyryl)benzo[c][1,2]oxaborol-1(3H)-ol] | high inhibitory effect

target: T1, And-1; experiment: inhibition of And-1 in IGROV1 CR cells; type: cell-based; parameters: endogenous in cells; host or cells: IGROV1 CR; conditions: inhibition of And-1, IGROV1 CR cells

SMILES | IC50 [µM]
OB1OCc2cc(/C=C/c3cc(C(F)(F)F)cc(C(F)(F)F)c3)ccc21 [IV, (E)-5-(3,5-bis(trifluoromethyl)styryl)benzo[c][1,2]oxaborol-1(3H)-ol] | 37.6
OB1OCc2cc(/C=C/c3ccccc3)ccc21 [XIII, (E)-5-styrylbenzo[c][1,2]oxaborol-1(3H)-ol] | 41

More lines, now with the values ahead:

IC50 [µM] | SMILES
19.2 | OB1OCc2cc(/C=C/c3cccc(Cl)c3)ccc21 [X, (E)-5-(3-chlorostyryl)benzo[c][1,2]oxaborol-1(3H)-ol]
32.9 | Cc1cccc(/C=C/c2ccc3c(c2)COB3O)c1 [XI, (E)-5-(3-methylstyryl)benzo[c][1,2]oxaborol-1(3H)-ol]
34.1 | COc1cccc(/C=C/c2ccc3c(c2)COB3O)c1 [XII, (E)-5-(3-methoxystyryl)benzo[c][1,2]oxaborol-1(3H)-ol]
